We go through 2 compounds from ChEMBL document CHEMBL5331077, “Combining pharmacophore models derived from DNA-encoded chemical libraries with structure-based exploration to predict Tankyrase 1 inhibitors” (Eur J Med Chem, 2023).

The source made the active and inactive calls. The calls are words filed in the database; no cut-off is given here.

In assay [1] the target is Protein mono-ADP-ribosyltransferase PARP6 (Homo sapiens) (UniProt Q2NL67). Description: Inhibition of PARP6 (unknown origin).
Assay [2] concerns the target Protein mono-ADP-ribosyltransferase PARP14 (Homo sapiens) (UniProt Q460N5). Briefly: Inhibition of PARP14 (unknown origin).
The target in assay [3] is T1, Protein mono-ADP-ribosyltransferase PARP10 (Homo sapiens) (UniProt Q53GL7).
T1 sequence (whole entry): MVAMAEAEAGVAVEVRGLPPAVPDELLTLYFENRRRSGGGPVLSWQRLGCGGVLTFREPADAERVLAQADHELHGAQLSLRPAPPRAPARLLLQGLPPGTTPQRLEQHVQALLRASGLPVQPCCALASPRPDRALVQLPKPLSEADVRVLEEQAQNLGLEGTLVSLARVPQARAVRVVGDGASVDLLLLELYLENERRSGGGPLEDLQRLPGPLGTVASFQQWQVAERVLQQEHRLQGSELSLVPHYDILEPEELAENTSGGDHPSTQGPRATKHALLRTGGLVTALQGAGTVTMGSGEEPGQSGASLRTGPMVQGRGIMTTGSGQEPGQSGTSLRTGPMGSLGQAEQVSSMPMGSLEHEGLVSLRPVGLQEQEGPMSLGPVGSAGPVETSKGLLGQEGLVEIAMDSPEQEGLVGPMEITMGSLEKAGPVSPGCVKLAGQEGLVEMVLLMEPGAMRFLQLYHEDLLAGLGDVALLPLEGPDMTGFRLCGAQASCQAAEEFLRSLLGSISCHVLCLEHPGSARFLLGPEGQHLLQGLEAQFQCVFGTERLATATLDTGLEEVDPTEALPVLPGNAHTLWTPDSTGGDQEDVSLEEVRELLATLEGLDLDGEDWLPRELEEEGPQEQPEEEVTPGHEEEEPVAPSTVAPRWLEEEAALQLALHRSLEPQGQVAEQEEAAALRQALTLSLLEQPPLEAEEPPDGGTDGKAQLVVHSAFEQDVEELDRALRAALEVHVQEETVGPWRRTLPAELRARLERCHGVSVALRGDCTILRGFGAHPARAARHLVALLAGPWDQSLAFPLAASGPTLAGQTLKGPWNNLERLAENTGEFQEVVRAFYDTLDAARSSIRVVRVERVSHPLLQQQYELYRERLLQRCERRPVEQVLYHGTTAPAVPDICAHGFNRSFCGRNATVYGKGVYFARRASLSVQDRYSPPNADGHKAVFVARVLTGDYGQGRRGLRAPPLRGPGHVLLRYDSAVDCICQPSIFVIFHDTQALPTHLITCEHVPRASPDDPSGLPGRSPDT
Briefly: Inhibition of PARP10 (unknown origin).

Assay [4] deals with T2, Poly [ADP-ribose] polymerase tankyrase-1 (Homo sapiens, UniProt O95271).
T2 sequence (O95271 whole entry): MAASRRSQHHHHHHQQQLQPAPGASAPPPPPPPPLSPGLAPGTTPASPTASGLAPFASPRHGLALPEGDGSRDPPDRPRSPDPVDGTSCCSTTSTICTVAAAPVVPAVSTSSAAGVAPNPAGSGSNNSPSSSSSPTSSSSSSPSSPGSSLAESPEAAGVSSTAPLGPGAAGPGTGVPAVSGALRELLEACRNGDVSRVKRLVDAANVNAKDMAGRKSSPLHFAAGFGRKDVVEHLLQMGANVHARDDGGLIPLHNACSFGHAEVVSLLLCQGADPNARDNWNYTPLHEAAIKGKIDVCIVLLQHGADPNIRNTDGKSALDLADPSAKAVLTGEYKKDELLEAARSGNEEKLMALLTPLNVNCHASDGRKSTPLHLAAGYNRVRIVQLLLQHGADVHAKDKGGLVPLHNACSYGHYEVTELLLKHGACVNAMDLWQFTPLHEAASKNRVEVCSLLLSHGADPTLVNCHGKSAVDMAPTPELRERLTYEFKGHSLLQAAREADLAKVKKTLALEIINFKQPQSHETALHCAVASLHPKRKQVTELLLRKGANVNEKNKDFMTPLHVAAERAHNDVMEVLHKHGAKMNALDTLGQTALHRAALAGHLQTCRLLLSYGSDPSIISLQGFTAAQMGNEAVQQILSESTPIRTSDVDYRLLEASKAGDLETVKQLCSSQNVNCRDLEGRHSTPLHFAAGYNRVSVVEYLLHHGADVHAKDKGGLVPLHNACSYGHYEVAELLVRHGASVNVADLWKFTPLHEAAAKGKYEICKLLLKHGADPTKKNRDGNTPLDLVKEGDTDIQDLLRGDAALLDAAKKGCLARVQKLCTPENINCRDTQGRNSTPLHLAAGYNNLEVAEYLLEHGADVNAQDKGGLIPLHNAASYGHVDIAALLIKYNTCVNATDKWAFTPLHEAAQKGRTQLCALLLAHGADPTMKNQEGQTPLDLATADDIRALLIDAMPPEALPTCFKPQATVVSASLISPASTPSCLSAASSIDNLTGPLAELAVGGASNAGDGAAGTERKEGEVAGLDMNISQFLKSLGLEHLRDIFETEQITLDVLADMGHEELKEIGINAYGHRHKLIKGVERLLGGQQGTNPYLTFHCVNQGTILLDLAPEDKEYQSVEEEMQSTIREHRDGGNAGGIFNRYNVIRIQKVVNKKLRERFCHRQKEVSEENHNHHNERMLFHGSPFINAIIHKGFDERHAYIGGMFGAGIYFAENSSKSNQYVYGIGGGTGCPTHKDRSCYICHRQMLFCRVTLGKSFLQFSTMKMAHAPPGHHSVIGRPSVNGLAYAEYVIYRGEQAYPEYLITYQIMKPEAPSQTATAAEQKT
Description: Inhibition of TNKS1 (unknown origin) using biotinylated NAD as substrate preincubated for 30 mins followed by substrate addition and measured after 1 hr by BioTek synergy 2 microplate reader analysis.

The target in assay [5] is T3, Protein mono-ADP-ribosyltransferase PARP11 (Homo sapiens) (UniProt Q9NR21).
T3 sequence (whole entry): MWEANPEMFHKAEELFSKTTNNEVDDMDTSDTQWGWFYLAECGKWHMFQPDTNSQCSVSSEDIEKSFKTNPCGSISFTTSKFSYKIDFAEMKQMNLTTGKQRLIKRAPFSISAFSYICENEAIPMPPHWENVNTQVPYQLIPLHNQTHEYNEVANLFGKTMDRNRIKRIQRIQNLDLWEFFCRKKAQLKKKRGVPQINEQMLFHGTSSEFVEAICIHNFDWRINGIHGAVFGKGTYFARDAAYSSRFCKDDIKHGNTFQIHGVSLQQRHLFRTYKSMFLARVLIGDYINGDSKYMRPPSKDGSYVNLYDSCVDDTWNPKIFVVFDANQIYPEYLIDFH
Description: Inhibition of PARP11 (unknown origin).

Chain of Protein mono-ADP-ribosyltransferase PARP14 (Homo sapiens) (Q460N5 whole entry): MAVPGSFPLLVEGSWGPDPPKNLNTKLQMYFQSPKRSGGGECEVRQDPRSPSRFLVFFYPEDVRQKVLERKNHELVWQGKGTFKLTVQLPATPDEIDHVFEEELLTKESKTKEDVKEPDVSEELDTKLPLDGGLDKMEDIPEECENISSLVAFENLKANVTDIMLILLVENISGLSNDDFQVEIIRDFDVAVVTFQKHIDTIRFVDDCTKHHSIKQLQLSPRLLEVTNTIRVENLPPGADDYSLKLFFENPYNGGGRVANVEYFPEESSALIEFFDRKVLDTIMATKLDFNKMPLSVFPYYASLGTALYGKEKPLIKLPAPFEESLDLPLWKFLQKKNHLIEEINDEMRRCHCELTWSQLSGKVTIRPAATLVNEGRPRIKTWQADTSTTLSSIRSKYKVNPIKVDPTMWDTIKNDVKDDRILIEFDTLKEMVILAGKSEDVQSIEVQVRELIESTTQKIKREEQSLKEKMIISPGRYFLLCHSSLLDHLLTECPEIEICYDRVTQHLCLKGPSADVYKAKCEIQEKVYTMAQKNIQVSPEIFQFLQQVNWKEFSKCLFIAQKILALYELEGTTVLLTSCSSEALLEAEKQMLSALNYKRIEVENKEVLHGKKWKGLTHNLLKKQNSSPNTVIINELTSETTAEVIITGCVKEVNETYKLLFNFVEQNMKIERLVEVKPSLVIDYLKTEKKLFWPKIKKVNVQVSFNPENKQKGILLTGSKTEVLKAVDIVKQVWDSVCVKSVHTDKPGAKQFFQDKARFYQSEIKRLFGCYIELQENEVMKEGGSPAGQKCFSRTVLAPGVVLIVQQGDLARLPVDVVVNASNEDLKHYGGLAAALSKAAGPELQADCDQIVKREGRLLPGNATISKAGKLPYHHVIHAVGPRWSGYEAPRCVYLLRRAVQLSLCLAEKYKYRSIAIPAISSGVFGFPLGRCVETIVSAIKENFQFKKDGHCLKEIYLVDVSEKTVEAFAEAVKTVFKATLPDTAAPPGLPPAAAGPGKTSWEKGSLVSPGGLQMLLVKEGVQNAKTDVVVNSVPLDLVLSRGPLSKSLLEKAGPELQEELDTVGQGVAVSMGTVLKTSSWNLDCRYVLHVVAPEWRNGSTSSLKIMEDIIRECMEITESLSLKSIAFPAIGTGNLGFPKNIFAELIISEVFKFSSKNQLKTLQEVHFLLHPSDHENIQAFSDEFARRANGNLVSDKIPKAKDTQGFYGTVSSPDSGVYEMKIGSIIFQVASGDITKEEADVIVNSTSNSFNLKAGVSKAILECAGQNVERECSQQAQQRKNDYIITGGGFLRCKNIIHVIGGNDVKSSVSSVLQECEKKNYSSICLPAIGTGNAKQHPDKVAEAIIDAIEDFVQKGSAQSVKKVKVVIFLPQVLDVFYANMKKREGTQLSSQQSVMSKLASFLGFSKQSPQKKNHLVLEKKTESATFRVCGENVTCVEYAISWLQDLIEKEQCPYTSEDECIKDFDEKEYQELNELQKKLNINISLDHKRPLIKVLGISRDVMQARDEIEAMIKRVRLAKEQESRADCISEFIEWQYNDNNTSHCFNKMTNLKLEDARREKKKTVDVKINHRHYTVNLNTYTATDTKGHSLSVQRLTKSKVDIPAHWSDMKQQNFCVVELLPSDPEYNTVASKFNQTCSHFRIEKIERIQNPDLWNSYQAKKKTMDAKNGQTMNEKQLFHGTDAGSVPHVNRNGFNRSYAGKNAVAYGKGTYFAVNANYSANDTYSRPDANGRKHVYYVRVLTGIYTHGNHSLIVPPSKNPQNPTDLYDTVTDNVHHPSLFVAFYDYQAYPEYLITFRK
Chain of Protein mono-ADP-ribosyltransferase PARP6 (Homo sapiens) (Q2NL67 whole entry): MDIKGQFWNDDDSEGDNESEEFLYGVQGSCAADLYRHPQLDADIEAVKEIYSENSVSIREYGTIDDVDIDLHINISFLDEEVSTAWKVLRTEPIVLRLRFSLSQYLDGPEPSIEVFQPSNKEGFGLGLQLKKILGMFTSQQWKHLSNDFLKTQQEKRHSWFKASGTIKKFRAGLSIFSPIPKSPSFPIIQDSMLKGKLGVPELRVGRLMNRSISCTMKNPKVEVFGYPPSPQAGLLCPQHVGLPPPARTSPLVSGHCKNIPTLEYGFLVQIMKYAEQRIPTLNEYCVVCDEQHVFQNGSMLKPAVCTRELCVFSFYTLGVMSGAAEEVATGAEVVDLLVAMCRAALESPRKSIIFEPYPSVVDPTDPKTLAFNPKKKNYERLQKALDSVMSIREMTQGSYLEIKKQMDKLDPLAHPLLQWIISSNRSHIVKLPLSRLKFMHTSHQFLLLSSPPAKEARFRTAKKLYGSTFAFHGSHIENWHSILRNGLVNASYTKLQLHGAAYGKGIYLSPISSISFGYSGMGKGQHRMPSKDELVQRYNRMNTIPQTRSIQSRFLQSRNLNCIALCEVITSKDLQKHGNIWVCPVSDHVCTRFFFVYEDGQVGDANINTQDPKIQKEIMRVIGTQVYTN

The IC50 is the concentration that gives 50% inhibition. As to `CNC(=O)[C@H](CNC(=O)CCn1c(=O)[nH]c(=O)c2ccccc21)NC(=O)c1cnc2ccccc2c1`, the inhibition entry in assay [1], in assay [2], in assay [3] and in assay [5] was “inactive” in each case. The IC50 in assay [4] is 0.8 nM.
Regarding `Cc1cc(OCC(=O)NCCNC(=O)c2cccc(COc3ccccc3C(N)=O)c2)c2c3c(c(=O)oc2c1)CCC3`, the inhibition entry in assay [1], in assay [2] and in assay [5] was “inactive” each time. Also, the inhibition result in assay [3] was “Active”. The IC50 in assay [4] was 2 nM.
